Data reported in publication PMC5982112 (Peptides, 2018).
Ends that are not written are not given here.

Assays:
[1] = test system: Staphylococcus aureus (ATCC 25923); assay: Broth dilution sterilization assay, S. aureus; assay type: cell-based; conditions: lowest concentration that completely sterilizes bacteria in media, mean of at least three independent measurements
Bacillus cereus = assay: Broth dilution sterilization assay, B. cereus; assay type: cell-based; conditions: lowest concentration that completely sterilizes bacteria in media, mean of at least three independent measurements
[2] = test system: Pseudomonas aeruginosa (PA01, ATTC 47085); assay: Broth dilution sterilization assay, P. aeruginosa; assay type: cell-based; conditions: lowest concentration that completely sterilizes bacteria in media, mean of at least three independent measurements
[3] = test system: Escherichia coli (ATCC 25922); assay: Broth dilution sterilization assay, E. coli; assay type: cell-based; conditions: lowest concentration that completely sterilizes bacteria in media, mean of at least three independent measurements
[4] = test system: bloodstream (infective) form of Trypanosoma brucei; conditions: cited from earlier work
[5] = test system: procyclic (noninfective) form of T. brucei; conditions: cited from earlier work
[6] = test system: Escherichia coli (ATCC 25922); assay type: cell-based
[7] = test system: Staphylococcus aureus (ATCC 25923); assay type: cell-based
E. coli = conditions: ref 17 (El Karim et al.); cited from earlier work
S. aureus = conditions: ref 17 (El Karim et al.); cited from earlier work

Substance | SA Broth, minimum inhibitory concentration (MIC) [1] [µM] | BC Broth, minimum inhibitory concentration (MIC) (Bacillus cereus) [µM] | PA Broth, minimum inhibitory concentration (MIC) [2] [µM] | EC Broth, minimum inhibitory concentration (MIC) [3] [µM] | Killing of bloodstream (infective) form of Trypanosoma brucei [4] | Effect on procyclic (noninfective) form of T. brucei [5] | EC Radial Diffusion, minimum inhibitory concentration (MIC) [6] [µM] | SA Radial Diffusion, minimum inhibitory concentration (MIC) [7] [µM] | Activity against E. coli (E. coli) | Activity against S. aureus (S. aureus)
PACAP27 | >30 | >30 | 23.6 | >30 |  |  |  |  |  | 
PACAP(6–38) | >30 | >30 | 30.0 | >30 | effective |  |  |  |  | 
Pituitary adenylate cyclase-activating polypeptide [PACAP38] | >30 | 23.3 | 1.2 | 28.3 | killed | resistant |  |  |  | 
RRGWALRLVLAY-NH2 [ARVA] | 5.1 | 6.4 | 4.3 | 2.3 |  |  | 1.57 | 3.46 |  | 
[Ala^22]PACAP38 | >30 | 4.84 | 0.52 | 2.15 |  |  |  |  |  | 
[D-Ser^2]PACAP38 | >30 | 13.6 | 6.1 | >30 |  |  |  |  |  | 
[Pip^3,Aib^16,28,Ala^17,21,Lys^34,D-Lys^38]PACAP38 | >30 | 7.26 | 0.64 | 1.43 |  |  |  |  |  | 
[Pip^3,Aib^16,28,Ala^17,Lys^34,D-Lys^38]PACAP38 | >30 | 3.95 | 0.52 | 2.15 |  |  |  |  |  | 
[Pip^3]PACAP38 | >30 | 8.9 | 8.9 | >30 |  |  |  |  |  | 
indolicidin | 7.9 | 10.7 | >50 | 6.24 |  |  |  |  |  | 
vasoactive intestinal peptide [VIP] | >30 | >30 | 30.0 | >30 |  |  |  |  | had activity against E. coli | not against S. aureus
